The experiment relates to colorectal cancer cell lines with stably overexpressed or knockdown piR-54265. In words: IC50 experiments with chemotherapy drugs on colorectal cancer cell lines with overexpressed or knockdown piR-54265. Type of experiment: cell-based. The following applies: for cell chemosensitivity (change of IC50): cells after knocking down piR-54265, versus control; for chemoresistance of the colorectal cancer cells (change of IC50): cells overexpressing piR-54265, versus control. The source says:
IC50 experiments with the first-line colorectal cancer chemotherapy drugs 5-FU and L-OHP were respectively performed on colorectal cancer cell lines with stably overexpressed or knockdown piR-54265. Subcutaneous xenograft tumors in nude mice were established using the stable cell lines mentioned above, and when a tumor volume reached 250 mm^3, treatment of intraperitoneal injection with 5-FU or L-OHP was started, and the change of the tumor volume was periodically measured.

For `O=c1[nH]cc(F)c(=O)[nH]1` [5-FU], the “cell chemosensitivity (change of IC50)” value is given as “improved” and the “chemoresistance of the colorectal cancer cells (change of IC50)” value is listed as “enhanced”.

Regarding `N[C@@H]1CCCC[C@H]1N.O=C([O-])C(=O)[O-].[Pt+2]` [L-OHP], the “cell chemosensitivity (change of IC50)” value is reported as “improved” and the “chemoresistance of the colorectal cancer cells (change of IC50)” value is listed as “enhanced”.

(Values after patent US11674172B2, “PIRNA-54265 detection kit used for early screening, diagnosis, curative efficacy monitoring and prognostic evaluation of colorectal cancer” (SUN YAT-SEN UNIVERSITY, priority 2018, dated 2023).)
